Laboratory results taken from patent US11959086B2, “Dual transit peptides for targeting polypeptides” (BASF AGRO B.V., priority 2016, dated 2024).

What was measured:
[1] = system: transgenic Arabidopsis thaliana, transgene SEQ ID NO 118; assay: Herbicide injury evaluation of Arabidopsis plants, greenhouse; type: in vivo; details: scale 0-100
[2] = system: Arabidopsis plants, construct RHOMA_PPO_wt_tpAMATU_PPO2 (SEQ ID NO 127); assay: Tolerance of transgenic T1 Arabidopsis plants to herbicides, greenhouse (Tolerance Factor); type: in vivo, Arabidopsis thaliana
[3] = system: transgenic Arabidopsis thaliana, transgene SEQ ID NO 121; assay: Herbicide injury evaluation of Arabidopsis plants, greenhouse; type: in vivo; details: Table 3, scale 0-100
[4] = system: transgenic Arabidopsis thaliana, transgene SEQ ID NO 117; assay: as above; type: in vivo; details: Table 3, scale 0-100
[5] = system: Arabidopsis plants, construct RHOMA_PPO_F420V_tpFNR (SEQ ID NO 124); assay: Tolerance of transgenic T1 Arabidopsis plants to herbicides, greenhouse (Tolerance Factor); type: in vivo, Arabidopsis thaliana
[6] = system: Arabidopsis plants, construct hemG_tpsAMATU_PPO2 (SEQ ID NO 119); assay: as above; type: in vivo, Arabidopsis thaliana
[7] = system: transgenic Arabidopsis thaliana, transgene SEQ ID NO 119; assay: Herbicide injury evaluation of Arabidopsis plants, greenhouse; type: in vivo; details: Table 3, scale 0-100
[8] = system: Arabidopsis plants, construct CHLSP_PPO_wt_tpFNR (SEQ ID NO 128); assay: Tolerance of transgenic T1 Arabidopsis plants to herbicides, greenhouse (Tolerance Factor); type: in vivo, Arabidopsis thaliana
[9] = system: Arabidopsis plants, construct hemF_tpsAMATU_PPO2 (SEQ ID NO 116); assay: as above; type: in vivo, Arabidopsis thaliana
[10] = system: Arabidopsis plants, construct hemG_tpFNR (SEQ ID NO 117); assay: as above; type: in vivo, Arabidopsis thaliana
[11] = system: transgenic Arabidopsis thaliana, transgene SEQ ID NO 128; assay: Herbicide injury evaluation of Arabidopsis plants, greenhouse; type: in vivo; details: Table 3, scale 0-100
[12] = system: Arabidopsis plants, construct OPITE_PPO_wt_tpFNR (SEQ ID NO 121); assay: Tolerance of transgenic T1 Arabidopsis plants to herbicides, greenhouse (Tolerance Factor); type: in vivo, Arabidopsis thaliana
[13] = system: Wildtype/non-transgenic Arabidopsis thaliana; assay: Herbicide injury evaluation of Arabidopsis plants, greenhouse; type: in vivo; details: scale 0-100
[14] = system: Arabidopsis plants, construct hemF_tpFNR (SEQ ID NO 114); assay: Tolerance of transgenic T1 Arabidopsis plants to herbicides, greenhouse (Tolerance Factor); type: in vivo, Arabidopsis thaliana
[15] = system: Arabidopsis plants, construct hemF_tplAMATU_PPO2 (SEQ ID NO 115); assay: as above; type: in vivo, Arabidopsis thaliana
[16] = system: Arabidopsis plants, construct hemG_tplAMATU_PPO2 (SEQ ID NO 118); assay: as above; type: in vivo, Arabidopsis thaliana
[17] = system: transgenic Arabidopsis thaliana, transgene SEQ ID NO 120; assay: Herbicide injury evaluation of Arabidopsis plants, greenhouse; type: in vivo; details: Table 4, scale 0-100
[18] = system: Arabidopsis plants, construct RHOMA_PPO_wt_tpFNR (SEQ ID NO 123); assay: Tolerance of transgenic T1 Arabidopsis plants to herbicides, greenhouse (Tolerance Factor); type: in vivo, Arabidopsis thaliana

## C#CCN1C(=O)C(F)(F)Oc2cc(F)c(-n3c(=O)n(C)c(=S)n(C)c3=O)cc21 [Trifludimoxazine, 1,5-dimethyl-6-thioxo-3-(2,2,7-trifluoro-3-oxo-4-(prop-2-ynyl)-3,4-dihydro-2H-benzo[b][1,4]oxazin-6-yl)-1,3,5-triazinane-2,4-dione]
[1]; Table 3, SEQ ID NO 118 Q, 25 g ai/ha + 1% MSO
  Herbicide injury evaluation 14 days after herbicide treatment: 45
[1]; Table 3, SEQ ID NO 118 Q, 75 g ai/ha + 1% MSO
  Herbicide injury evaluation 14 days after herbicide treatment: 50
[1]; Table 3, SEQ ID NO 118 Q, 150 g ai/ha + 1% MSO
  Herbicide injury evaluation 14 days after herbicide treatment: 58
[1]; Table 3, SEQ ID NO 118 R, 25 g ai/ha + 1% MSO
  Herbicide injury evaluation 14 days after herbicide treatment: 20
[1]; Table 3, SEQ ID NO 118 R, 75 g ai/ha + 1% MSO
  Herbicide injury evaluation 14 days after herbicide treatment: 23
[1]; Table 3, SEQ ID NO 118 R, 150 g ai/ha + 1% MSO
  Herbicide injury evaluation 14 days after herbicide treatment: 10
[1]; Table 4, SEQ ID NO 118 Q, 25 g ai/ha + 1% MSO
  Herbicide injury evaluation 14 days after herbicide treatment: 60
[1]; Table 4, SEQ ID NO 118 Q, 75 g ai/ha + 1% MSO
  Herbicide injury evaluation 14 days after herbicide treatment: 63
[1]; Table 4, SEQ ID NO 118 Q, 150 g ai/ha + 1% MSO
  Herbicide injury evaluation 14 days after herbicide treatment: 65
[1]; Table 4, SEQ ID NO 118 R, 25 g ai/ha + 1% MSO
  Herbicide injury evaluation 14 days after herbicide treatment: 18
[1]; Table 4, SEQ ID NO 118 R, 75 g ai/ha + 1% MSO
  Herbicide injury evaluation 14 days after herbicide treatment: 28
[1]; Table 4, SEQ ID NO 118 R, 150 g ai/ha + 1% MSO
  Herbicide injury evaluation 14 days after herbicide treatment: 50
[2]
  Tolerance Factor: 1
[3]; SEQ ID NO 121 G, 25 g ai/ha + 1% MSO
  Herbicide injury evaluation 14 days after herbicide treatment: 100
[3]; SEQ ID NO 121 G, 75 g ai/ha + 1% MSO
  Herbicide injury evaluation 14 days after herbicide treatment: 100
[3]; SEQ ID NO 121 G, 150 g ai/ha + 1% MSO
  Herbicide injury evaluation 14 days after herbicide treatment: 100
[3]; SEQ ID NO 121 H, 25 g ai/ha + 1% MSO
  Herbicide injury evaluation 14 days after herbicide treatment: 100
[3]; SEQ ID NO 121 H, 75 g ai/ha + 1% MSO
  Herbicide injury evaluation 14 days after herbicide treatment: 100
[3]; SEQ ID NO 121 H, 150 g ai/ha + 1% MSO
  Herbicide injury evaluation 14 days after herbicide treatment: 100
[4]; SEQ ID NO 117 C, 25 g ai/ha + 1% MSO
  Herbicide injury evaluation 14 days after herbicide treatment: 92
[4]; SEQ ID NO 117 C, 75 g ai/ha + 1% MSO
  Herbicide injury evaluation 14 days after herbicide treatment: 93
[4]; SEQ ID NO 117 C, 150 g ai/ha + 1% MSO
  Herbicide injury evaluation 14 days after herbicide treatment: 97
[4]; SEQ ID NO 117 I, 25 g ai/ha + 1% MSO
  Herbicide injury evaluation 14 days after herbicide treatment: 90
[4]; SEQ ID NO 117 I, 75 g ai/ha + 1% MSO
  Herbicide injury evaluation 14 days after herbicide treatment: 99
[4]; SEQ ID NO 117 I, 150 g ai/ha + 1% MSO
  Herbicide injury evaluation 14 days after herbicide treatment: 98
[5]
  Tolerance Factor: 1
[6]
  Tolerance Factor: 1
[7]; SEQ ID NO 119 A, 25 g ai/ha + 1% MSO
  Herbicide injury evaluation 14 days after herbicide treatment: 100
[7]; SEQ ID NO 119 A, 75 g ai/ha + 1% MSO
  Herbicide injury evaluation 14 days after herbicide treatment: 100
[7]; SEQ ID NO 119 A, 150 g ai/ha + 1% MSO
  Herbicide injury evaluation 14 days after herbicide treatment: 100
[7]; SEQ ID NO 119 B, 25 g ai/ha + 1% MSO
  Herbicide injury evaluation 14 days after herbicide treatment: 100
[7]; SEQ ID NO 119 B, 75 g ai/ha + 1% MSO
  Herbicide injury evaluation 14 days after herbicide treatment: 100
[7]; SEQ ID NO 119 B, 150 g ai/ha + 1% MSO
  Herbicide injury evaluation 14 days after herbicide treatment: 100
[8]
  Tolerance Factor: 1500
[9]
  Tolerance Factor: 1
[10]
  Tolerance Factor: 4433
[11]; SEQ ID NO 128 D, 25 g ai/ha + 1% MSO
  Herbicide injury evaluation 14 days after herbicide treatment: 85
[11]; SEQ ID NO 128 D, 75 g ai/ha + 1% MSO
  Herbicide injury evaluation 14 days after herbicide treatment: 93
[11]; SEQ ID NO 128 D, 150 g ai/ha + 1% MSO
  Herbicide injury evaluation 14 days after herbicide treatment: 93
[11]; SEQ ID NO 128 E, 25 g ai/ha + 1% MSO
  Herbicide injury evaluation 14 days after herbicide treatment: 85
[11]; SEQ ID NO 128 E, 75 g ai/ha + 1% MSO
  Herbicide injury evaluation 14 days after herbicide treatment: 95
[11]; SEQ ID NO 128 E, 150 g ai/ha + 1% MSO
  Herbicide injury evaluation 14 days after herbicide treatment: 97
[12]
  Tolerance Factor: 9
[13]; Table 3, 25 g ai/ha + 1% MSO
  Herbicide injury evaluation 14 days after herbicide treatment: 100
[13]; Table 3, 75 g ai/ha + 1% MSO
  Herbicide injury evaluation 14 days after herbicide treatment: 100
[13]; Table 3, 150 g ai/ha + 1% MSO
  Herbicide injury evaluation 14 days after herbicide treatment: 100
[13]; Table 4, 25 g ai/ha + 1% MSO
  Herbicide injury evaluation 14 days after herbicide treatment: 100
[13]; Table 4, 75 g ai/ha + 1% MSO
  Herbicide injury evaluation 14 days after herbicide treatment: 100
[13]; Table 4, 150 g ai/ha + 1% MSO
  Herbicide injury evaluation 14 days after herbicide treatment: 100
[14]
  Tolerance Factor: 1
[15]
  Tolerance Factor: 1
[16]
  Tolerance Factor: 9167
[17]; SEQ ID NO 120 J, 25 g ai/ha + 1% MSO
  Herbicide injury evaluation 14 days after herbicide treatment: 80
[17]; SEQ ID NO 120 J, 75 g ai/ha + 1% MSO
  Herbicide injury evaluation 14 days after herbicide treatment: 94
[17]; SEQ ID NO 120 J, 150 g ai/ha + 1% MSO
  Herbicide injury evaluation 14 days after herbicide treatment: 98
[17]; SEQ ID NO 120 M, 25 g ai/ha + 1% MSO
  Herbicide injury evaluation 14 days after herbicide treatment: 94
[17]; SEQ ID NO 120 M, 75 g ai/ha + 1% MSO
  Herbicide injury evaluation 14 days after herbicide treatment: 98
[17]; SEQ ID NO 120 M, 150 g ai/ha + 1% MSO
  Herbicide injury evaluation 14 days after herbicide treatment: 93
[18]
  Tolerance Factor: 1
